Entries after “also recorded” stand apart in the source; their conditions may differ.
What was measured:
[1] = test system: human T cells (PBMC from allergic donors) stimulated with ragweed extracts; assay: Ex vivo human T cell-proliferation assay, ragweed allergen extracts; conditions: PBMC from allergy donors, 7 days culture, 3H-thymidine incorporation
[2] = test system: human T cells (PBMC from allergic donors) stimulated with house dust mite extracts; assay: Ex vivo human T cell-proliferation assay, house dust mite allergen extracts
[3] = test system: human T cells (PBMC) stimulated with ConA; assay: Ex vivo human T cell-proliferation assay, ConA (pan-T cell mitogen) control; conditions: pan-T cell mitogen specificity control
[4] = test system: invariant chain (li) degradation in PBMC from human blood; assay: Monitoring cathepsin S inhibition in human blood: p10li fragment by Western blot; conditions: incubation for 24 h, SDS-PAGE / Western blot

Row | Compound | T cell proliferative responses to ragweed extracts (short and giant) [1] | T cell proliferative responses to Der f extract ([2]; PBMC from an allergy donor, titrated doses of compound, 7 days, 3H-thymidine incorporation (FIG. 3)) | T cell proliferative responses to house dust mite extracts (Der p and Der f) ([2]; PBMC from allergy donors, 7 days culture, 3H-thymidine incorporation) | T cell proliferative responses induced by ConA [3] | p10li fragment of invariant chain (block in degradation of li) [4]
1 | CS(=O)(=O)N1CCc2c(c(-c3ccc(Br)cc3)nn2CC(O)CN2CCC(n3c(=O)[nH]c4ccc(Cl)cc43)CC2)C1 (stereo not shown) [Example 8, 1-(1-{3-[3-(4-Bromo-phenyl)-5-methanesulfonyl-4,5,6,7-tetrahydro-pyrazolo[4,3-c]pyridin-1-yl]-2-hydroxy-propyl}-piperidin-4-yl)-6-chloro-1,3-dihydro-benzoimidazol-2-one] | inhibition | inhibition | – | – | –
2 | CC(C)C[C@H](NC(=O)N1CCOCC1)C(=O)N[C@H](/C=C/S(=O)(=O)c1ccccc1)CCc1ccccc1 [LHVS, 4-morpholinecarboxamide, N-[(1S)-3-methyl-1-[[[(1S, 2E)-1-(2-phenylethyl)-3-(phenylsulfonyl)-2-propenyl]amino]carbonyl]butyl]-] | strongly inhibited; also recorded: inhibition | – | strongly inhibited; also recorded: inhibition | not affected | the p10li fragment was seen
3 | Cc1cc(-c2nn(CC(O)CN3CCC(n4c(=O)[nH]c5ccc(Cl)cc54)CC3)c3c2CN(S(C)(=O)=O)CC3)ccc1Cl (stereo not shown) [Example 53, 6-Chloro-1-(1-{3-[3-(4-chloro-3-methyl-phenyl)-5-methanesulfonyl-4,5,6,7-tetrahydro-pyrazolo[4,3-c]pyridin-1-yl]-2-hydroxy-propyl}-piperidin4-yl)-1,3-dihydro-benzoimidazol-2-one] | inhibition | – | – | – | –

Reference: patent US6583155B2, “Method for treating allergies using substituted pyrazoles” (priority 2000, dated 2003)
